Measurements reported in the supplement of paper PMC10307832.

What was measured:
Experiment in all cases: relative viability (nuclei count vs DMSO), 5 days (fraction); higher = more cells survive
[1] = system: HARA
Method in brief: (§1)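 Relative viability equals treated-well nuclei counts divided by vehicle-well nuclei counts. Counts came from 4× images of lung cancer cell lines grown in 1536-well plates for 5 days after pin-tool dosing on the day after seeding. Dosing used one drug alone or a fixed anchor-drug dose plus five library-drug doses (not always all listed) in √10 steps, and values are medians of duplicate plates.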

[2] = system: NCI-H441
Method in brief: as §1

[3] = system: NCI-H1650
Method in brief: as §1

[4] = system: 201T
Method in brief: as §1

[5] = system: NCI-H358
Method in brief: as §1

[6] = system: BEN
Method in brief: as §1

[7] = system: HCC-15
Method in brief: as §1

[8] = system: NCI-H23
Method in brief: as §1

[9] = system: NCI-H1975
Method in brief: as §1

[10] = system: NCI-H1792
Method in brief: as §1

[11] = system: COR-L23
Method in brief: as §1

[12] = system: SK-MES-1
Method in brief: as §1

[13] = system: NCI-H1437
Method in brief: as §1

[14] = system: EKVX
Method in brief: as §1

[15] = system: NCI-H1666
Method in brief: as §1

[16] = system: NCI-H650
Method in brief: as §1

[17] = system: NCI-H596
Method in brief: as §1

[18] = system: HCC-44
Method in brief: as §1

[19] = system: A-427
Method in brief: as §1

[20] = system: NCI-H838
Method in brief: as §1

[21] = system: HCC-827
Method in brief: as §1

## O=c1cc(N2CCOCC2)oc2c(-c3cccc4c3sc3ccccc34)cccc12 + C[C@@H](Oc1cc(-c2cnn(C3CCNCC3)c2)cnc1N)c1c(Cl)ccc(F)c1Cl [Crizotinib] (partner 1 µM)
[1]; first compound 0.01 µM
  relative viability: 0.996
[1]; first compound 0.03162 µM
  relative viability: 1.05
[1]; first compound 0.1 µM
  relative viability: 1.26
[1]; first compound 0.3162 µM
  relative viability: 1.13
[1]; first compound 1 µM
  relative viability: 0.988
[2]; first compound 0.01 µM
  relative viability: 0.841
[2]; first compound 0.03162 µM
  relative viability: 0.785
[2]; first compound 0.1 µM
  relative viability: 1.09
[2]; first compound 0.3162 µM
  relative viability: 0.679
[2]; first compound 1 µM
  relative viability: 0.756
[3]; first compound 0.03162 µM
  relative viability: 0.906
[3]; first compound 0.1 µM
  relative viability: 0.872
[3]; first compound 0.3162 µM
  relative viability: 0.826
[3]; first compound 1 µM
  relative viability: 0.921
[4]; first compound 0.01 µM
  relative viability: 1
[4]; first compound 0.03162 µM
  relative viability: 1.01
[4]; first compound 0.1 µM
  relative viability: 0.981
[4]; first compound 0.3162 µM
  relative viability: 1.01
[4]; first compound 1 µM
  relative viability: 1.03
[5]; first compound 0.01 µM
  relative viability: 0.498
[5]; first compound 0.03162 µM
  relative viability: 0.546
[5]; first compound 0.1 µM
  relative viability: 0.794
[5]; first compound 0.3162 µM
  relative viability: 0.658
[5]; first compound 1 µM
  relative viability: 0.535
[6]; first compound 0.01 µM
  relative viability: 0.853
[6]; first compound 0.03162 µM
  relative viability: 0.892
[6]; first compound 0.1 µM
  relative viability: 0.877
[6]; first compound 0.3162 µM
  relative viability: 0.951
[6]; first compound 1 µM
  relative viability: 0.893
[7]; first compound 0.01 µM
  relative viability: 0.807
[7]; first compound 0.03162 µM
  relative viability: 0.846
[7]; first compound 0.1 µM
  relative viability: 0.879
[7]; first compound 0.3162 µM
  relative viability: 0.773
[7]; first compound 1 µM
  relative viability: 0.764
[8]; first compound 0.01 µM
  relative viability: 0.59
[8]; first compound 0.03162 µM
  relative viability: 0.586
[8]; first compound 0.3162 µM
  relative viability: 0.508
[8]; first compound 1 µM
  relative viability: 0.506
[9]; first compound 0.01 µM
  relative viability: 0.862
[9]; first compound 0.03162 µM
  relative viability: 0.998
[9]; first compound 0.1 µM
  relative viability: 1.02
[9]; first compound 0.3162 µM
  relative viability: 0.808
[9]; first compound 1 µM
  relative viability: 0.984
[10]; first compound 0.01 µM
  relative viability: 0.967
[10]; first compound 0.03162 µM
  relative viability: 0.923
[10]; first compound 0.1 µM
  relative viability: 0.741
[10]; first compound 0.3162 µM
  relative viability: 0.939
[10]; first compound 1 µM
  relative viability: 0.95
[11]; first compound 0.01 µM
  relative viability: 0.62
[11]; first compound 0.03162 µM
  relative viability: 0.732
[11]; first compound 0.1 µM
  relative viability: 0.819
[11]; first compound 0.3162 µM
  relative viability: 0.638
[11]; first compound 1 µM
  relative viability: 0.597
[12]; first compound 0.01 µM
  relative viability: 0.965
[12]; first compound 0.03162 µM
  relative viability: 0.991
[12]; first compound 0.1 µM
  relative viability: 1.01
[12]; first compound 0.3162 µM
  relative viability: 1.01
[12]; first compound 1 µM
  relative viability: 1.04
[13]; first compound 0.01 µM
  relative viability: 0.963
[13]; first compound 0.03162 µM
  relative viability: 0.896
[13]; first compound 0.1 µM
  relative viability: 0.959
[13]; first compound 0.3162 µM
  relative viability: 0.915
[13]; first compound 1 µM
  relative viability: 0.82
[14]; first compound 0.01 µM
  relative viability: 1.04
[14]; first compound 0.03162 µM
  relative viability: 0.881
[14]; first compound 0.1 µM
  relative viability: 1.18
[14]; first compound 0.3162 µM
  relative viability: 0.915
[14]; first compound 1 µM
  relative viability: 0.995
[15]; first compound 0.01 µM
  relative viability: 0.971
[15]; first compound 0.03162 µM
  relative viability: 1.05
[15]; first compound 0.1 µM
  relative viability: 0.905
[15]; first compound 0.3162 µM
  relative viability: 0.941
[15]; first compound 1 µM
  relative viability: 0.812
[16]; first compound 0.01 µM
  relative viability: 0.738
[16]; first compound 0.03162 µM
  relative viability: 0.82
[16]; first compound 0.3162 µM
  relative viability: 0.868
[16]; first compound 1 µM
  relative viability: 0.587
[17]; first compound 0.01 µM
  relative viability: 0.992
[17]; first compound 0.03162 µM
  relative viability: 0.997
[17]; first compound 0.1 µM
  relative viability: 0.907
[17]; first compound 0.3162 µM
  relative viability: 0.948
[17]; first compound 1 µM
  relative viability: 0.882
[18]; first compound 0.01 µM
  relative viability: 0.862
[18]; first compound 0.03162 µM
  relative viability: 0.811
[18]; first compound 0.1 µM
  relative viability: 0.814
[18]; first compound 0.3162 µM
  relative viability: 0.788
[18]; first compound 1 µM
  relative viability: 0.776
[19]; first compound 0.01 µM
  relative viability: 0.983
[19]; first compound 0.03162 µM
  relative viability: 0.851
[19]; first compound 0.1 µM
  relative viability: 0.807
[19]; first compound 0.3162 µM
  relative viability: 0.787
[19]; first compound 1 µM
  relative viability: 0.925
[20]; first compound 0.01 µM
  relative viability: 0.876
[20]; first compound 0.03162 µM
  relative viability: 0.77
[20]; first compound 0.1 µM
  relative viability: 0.849
[20]; first compound 0.3162 µM
  relative viability: 0.744
[20]; first compound 1 µM
  relative viability: 0.787
[21]; first compound 0.01 µM
  relative viability: 0.918
[21]; first compound 0.03162 µM
  relative viability: 0.939
[21]; first compound 0.1 µM
  relative viability: 0.873
[21]; first compound 0.3162 µM
  relative viability: 0.965
[21]; first compound 1 µM
  relative viability: 0.956
